From patent US20190119642A1, “METHODS AND COMPOSITIONS RELATING TO HEMATOPOIETIC STEM CELL EXPANSION” (CHILDREN'S MEDICAL CENTER CORPORATION, priority 2016, published 2019)

System: CD34+ enriched cord blood cells
Assay: Ex vivo expansion of CD34+ enriched cord blood cells, 12 days in culture with small molecules, flow cytometry
Conditions: for percentage and total number of Lin-CD34+ and Lin- cells: CD34+ cord blood cells cultured in vitro 12 days, FIGS. 21-23
Description: CD34+ enriched cord blood cells were obtained from AllCells. Ten thousand cells were cultured in StemSpan SFEMII containing recombinant human SCF, TPO, IL-3 and FLT3L (all at 100 ng/ml). Cells were cultured with cytokine containing media with the vehicle control (DMSO) or the indicated small molecules. Media was changed every three days. On day twelve, cells were harvested, counted, and analyzed by flow cytometry.
Plots show samples previously gated through live (PI-) and singlet gates. Gating strategy for immunophenotypic hematopoietic stem cells (HSCs) defined as Lin−CD34+CD45RA−CD90+ and Lin−CD34+CD45RA−CD90+CD49f+EPCR+ HSCs is shown. Percentages indicate the frequency of the parent (previous) gate.
Plots show samples previously gated through live (PI-) and singlet gates. Gating strategy for immunophenotypic hematopoietic stem cells (HSCs) as Lin−CD34+CD45RA−CD90+ and Lin−CD34+CD45RA−CD90+CD49f+EPCR+ are shown. Percentages indicate the frequency of cells in the parent population.
Depicted is the total number of live cells after 12 days of culturing 10,000 CD34+ enriched cord blood cells in the indicated conditions.
CD34+ cord blood cells were cultured in vitro in the presence of different combinations of compounds as described herein.

Nc1cccc2c1C(=O)N(C1CCC(=O)NC1=O)C2=O (centres unmarked) [POM, pomalidomide]
percentage and total number of Lin-CD34+ and Lin- cells: increased | percentage and total number of Lin-CD45RA-CD90+ HSCs (CD34+ cord blood cells, 12 days culture, FIG. 24, 25): increased | percentage of Lin-CD45RA-CD90+CD49f+EPCR+ HSCs (CD34+ cord blood cells, 12 days culture, FIG. 26, 27): increased

CC(C)n1cnc2c(NCCc3ccc(O)cc3)nc(-c3csc4ccccc34)nc21 [SR1, StemRegenin 1]
percentage and total number of Lin-CD34+ and Lin- cells: increased

C[S+]([O-])c1ccc(-c2nc(-c3ccc(F)cc3)c(-c3ccncc3)[nH]2)cc1 (centres unmarked) [A, A83-01]
percentage and total number of Lin-CD34+ and Lin- cells: increased
